For one data set, the system named is WSUDLCL2. As to the kind of experiment: Antiproliferative activity against human WSUDLCL2 cells harboring EZH2 Y641F mutant. The data set is classed as functional, cell-based.
The test system of data set [1] is Pfeiffer. As to the kind of experiment: Antiproliferative activity against human Pfeiffer cells harboring EZH2 A677G mutant. The data set is classed as functional, cell-based.
Data set [2] has as its system KARPAS-422. Put plainly: Antiproliferative activity against human KARPAS-422 cells harboring EZH2 Y641N mutant. It is filed as functional, cell-based.
Data set [3] can be described thus: Half life in mouse at 10 mg/kg, po. The data set is classed as ADME, organism-based. The settings on record: in vivo.
Data set [4] can be described thus: Half life in mouse at 2 mg/kg, iv. It is filed as ADME, organism-based. Conditions: in vivo.
A short description of data set [5]: Cmax in mouse at 10 mg/kg, po. The data set is classed as ADME, organism-based. Conditions: in vivo.
Data set [6] in a line: Cmax in mouse at 2 mg/kg, iv. It is filed as ADME, organism-based. Conditions: in vivo.
Data set [7] in a line: AUC (0 to t) in mouse at 10 mg/kg, po. It is filed as ADME, organism-based. The settings on record: in vivo.
A short description of data set [8]: AUC (0 to t) in mouse at 2 mg/kg, iv. The settings on record: in vivo. The data set is classed as ADME, organism-based.
The nature of data set [9]: AUC (0 to infinity) in mouse at 10 mg/kg, po. The data set is classed as ADME, organism-based. Conditions: in vivo.
A short description of data set [10]: AUC (0 to infinity) in mouse at 2 mg/kg, iv. The settings on record: in vivo. It is filed as ADME, organism-based.
Data set [11] in a line: Volume of distribution at steady state in mouse at 2 mg/kg, iv. The settings on record: in vivo, read-out: Vdss. It is filed as ADME, organism-based.
A short description of data set [12]: Clearance in mouse at 2 mg/kg, iv. The data set is classed as ADME, organism-based. The settings on record: in vivo.
Data set [13] in a line: Oral bioavailability in mouse at 10 mg/kg. It is filed as ADME, organism-based. Conditions: in vivo.
A short description of data set [14]: Metabolic stability in mouse liver microsomes assessed as half life. It is filed as ADME, Microsome. (In general: Liver microsomes are a subcellular fraction often used to study metabolism.)
Data set [15] is described as follows: Metabolic stability in mouse liver microsomes assessed as intrinsic clearance in hepatocytes measured per million cells. It is filed as ADME, Microsome.
Data set [16] can be described thus: Metabolic stability in mouse liver microsomes assessed as intrinsic clearance in liver. The data set is classed as ADME, Microsome. The settings on record: read-out: CLH.
The nature of data set [17]: Metabolic stability in rat liver microsomes assessed as half life. The data set is classed as ADME, Microsome.
Data set [18] can be described thus: Metabolic stability in rat liver microsomes assessed as intrinsic clearance in hepatocytes measured per million cells. It is filed as ADME, Microsome.
Data set [19] can be described thus: Metabolic stability in rat liver microsomes assessed as intrinsic clearance in liver. The data set is classed as ADME, Microsome. The settings on record: read-out: CLH.
Data set [20] in a line: Metabolic stability in dog liver microsomes assessed as half life. The data set is classed as ADME, Canis lupus familiaris, Microsome.
Data set [21] in a line: Metabolic stability in dog liver microsomes assessed as intrinsic clearance in hepatocytes measured per million cells. The data set is classed as ADME, Canis lupus familiaris, Microsome.
Data set [22] can be described thus: Metabolic stability in dog liver microsomes assessed as intrinsic clearance in liver. The data set is classed as ADME, Canis lupus familiaris, Microsome. Conditions: read-out: CLH.
The nature of data set [23]: Metabolic stability in monkey liver microsomes assessed as half life. It is filed as ADME, Macaca mulatta, Microsome. Conditions: rhesus monkey.
Data set [24] is described as follows: Metabolic stability in monkey liver microsomes assessed as intrinsic clearance in hepatocytes measured per million cells. It is filed as ADME, Macaca mulatta, Microsome. Conditions: rhesus monkey.
A short description of data set [25]: Metabolic stability in monkey liver microsomes assessed as intrinsic clearance in liver. It is filed as ADME, Macaca mulatta, Microsome. Conditions: rhesus monkey, read-out: CLH.
The nature of data set [26]: Metabolic stability in human liver microsomes assessed as half life. It is filed as ADME, Microsome.
Data set [27] can be described thus: Metabolic stability in human liver microsomes assessed as intrinsic clearance in hepatocytes measured per million cells. The data set is classed as ADME, Microsome.
Data set [28] is described as follows: Metabolic stability in human liver microsomes assessed as intrinsic clearance in liver. Conditions: read-out: CLH. It is filed as ADME, Microsome.
A short description of data set [29]: Toxicity in mouse xenografted with human Pfeiffer cells harboring EZH2 A677G mutant assessed as body weight loss at 100 mg/kg, po qd for 28 days. The data set is classed as organism-based. The settings on record: in vivo, 672 h, time 28 day. In general terms: In xenograft studies the graft and the host belong to different species.
Data set [30] in a line: Toxicity in mouse xenografted with human KARPAS-422 cells harboring EZH2 Y641N mutant assessed as body weight loss at 100 mg/kg, po bid for 28 days. It is filed as organism-based. The settings on record: in vivo, 672 h, time 28 day.
Data set [31] relates to Pfeiffer. Put plainly: Antitumor activity against human Pfeiffer cells harboring EZH2 A677G mutant xenografted in mouse at 100 mg/kg, po qd for 28 days relative to control. Conditions: 672 h, time 28 day, read-out: TGI. It is filed as functional.
Data set [32] has as its system KARPAS-422. As to the kind of experiment: Antitumor activity against human KARPAS-422 cells harboring EZH2 Y641N mutant xenografted in mouse at 100 mg/kg, po bid for 28 days relative to control. The data set is classed as functional. Conditions: KARPAS-422, 672 h, time 28 day, read-out: TGI.
Data set [33] in a line: Drug concentration in human KARPAS-422 cells harboring EZH2 Y641N mutant xenografted in mouse at 100 mg/kg, po measured after 4 hrs. The data set is classed as ADME, organism-based. The settings on record: KARPAS-422 xenograft tumour, read-out: Ct.
Data set [34] in a line: Drug concentration in human KARPAS-422 cells harboring EZH2 Y641N mutant xenografted in mouse at 100 mg/kg, po measured after 8 hrs. The data set is classed as ADME, organism-based. Conditions: KARPAS-422 xenograft tumour, read-out: Ct.

Molecules are shown by their SMILES.

For orientation: IC50 means the concentration at which inhibition is half-maximal. Usually half-life stands for how long it takes for the measured level to halve. By Cmax is commonly meant the maximum level reached in the sampled fluid or tissue. For orientation: AUC(0-t) means the area under the concentration-time curve up to a stated or last time point. What is called AUC(0-inf) is the area under the concentration-time curve extrapolated to infinity. Broadly, the clearance is the volume of plasma or blood freed of the substance per unit of time. The term bioavailability denotes dose-corrected exposure relative to a reference, in per cent. `CCN1C(=O)C2(CCOCC2)c2ccc(-c3cc(C(=O)NCc4c(C)cc(C)[nH]c4=O)c(C)c(N(CC)C4CCOCC4)c3)cc21`: the IC50 came out at 2.38 nM in the data set on WSUDLCL2, 0.49 nM in the data set on Pfeiffer [1] and 1.79 nM with KARPAS-422 [2]. For the same molecule, the half-life in [3] was 27.6 min; in data set [4], 19.2 min. Further, the Cmax in [5] stood at 1750 ng/mL; in data set [6] it was 2580 ng/mL. Moreover, the results for the AUC(0-t) in data set [7] and in data set [8] were 1350 ng·h/mL and 818 ng·h/mL, respectively. Besides, the figures for the total exposure AUC(0-inf) in [9] and in data set [10] were 1360 ng·h/mL and 831 ng·h/mL, respectively. Moreover, the Vd in data set [11] worked out at 0.803 L/kg. Also, the clearance in data set [12] was 43 mL/min/kg. Besides, the bioavailability in data set [13] stood at 33%.

`CCN(c1cc(-c2ccc3c(c2)N(C)CC32CCOCC2)cc(C(=O)NCc2c(C)cc(C)[nH]c2=O)c1C)C1CCOCC1`: the half-maximal inhibitory concentration (IC50) is 1.9 nM with WSUDLCL2, 1.01 nM in the data set with Pfeiffer [1] and 1.9 nM in the data set with KARPAS-422 [2]. Besides, the half-life in data set [3] and in data set [4] was 10.8 min each time. Moreover, the Cmax was 1280 ng/mL in data set [5] and 2790 ng/mL in data set [6]. For the same molecule, the values for the AUC(0-t) in data set [7] and in data set [8] were 566 ng·h/mL and 949 ng·h/mL, respectively. Besides, the AUC(0-inf) in [9] came out at 570 ng·h/mL; in [10], 955 ng·h/mL. Further, the Vd in [11] was found to be 0.565 L/kg. This molecule also displayed a clearance in data set [12] of 34.6 mL/min/kg. The molecule also yielded a bioavailability in data set [13] of 11.9%.

In the case of `CCN(c1cc(-c2ccc(CN3CCOCC3)cc2)cc(C(=O)NCc2c(C)cc(C)[nH]c2=O)c1C)C1CCOCC1` [TAZEMETOSTAT], the 50% inhibitory concentration (IC50) in the data set on WSUDLCL2 was determined as 6.44 nM; with Pfeiffer [1] it was 2.26 nM; in the data set with KARPAS-422 [2], 3.86 nM. In addition, the half-life in data set [3] was 52.8 min; in data set [4], 35.4 min; in data set [14], 9.6 min; in [17], 18.7 min; in [20] it was 20.8 min; in data set [23], 21 min. Also, the half-life in [26] stood at 58.7 min. Besides, the peak concentration (Cmax) was determined as 1950 ng/mL in data set [5] and 2010 ng/mL in data set [6]. The results for the AUC(0-t) in data set [7] and in data set [8] were 4340 ng·h/mL and 2710 ng·h/mL, respectively. Moreover, the AUC(0-inf) amounted to 4370 ng·h/mL in data set [9] and 2720 ng·h/mL in data set [10]. Also, the Vd in data set [11] turned out to be 0.623 L/kg. The clearance in data set [12] was 12.4 mL/min/kg. The bioavailability in data set [13] is 32%. Also, the CLH stood at 144.6 µL/min in [15]; 74.1 µL/min in data set [18]; 66.5 µL/min in data set [21]; 65.9 µL/min in [24]; 23.6 µL/min in data set [27]. The CLint scaled in data set [16] is 1720 mL/min/kg; in data set [19] it was 347 mL/min/kg; in data set [22] it was 458 mL/min/kg; in [25] it was 237 mL/min/kg; in data set [28], 65.7 mL/min/kg. Further, the Activity entry in data set [29] and in [30] was “Non-Toxic” each time. The inhibition in vivo at 100 mg/kg amounted to 71.9% in the data set with Pfeiffer [31] and 20.2% in the data set with KARPAS-422 [32]. Besides, the concentration at 4 h in data set [33] worked out at 2340 ng/mL. Further, the concentration at 8 h in data set [34] amounted to 416 ng/mL.

The record behind these values is ChEMBL document CHEMBL5584208, “Conformationally constrained potent inhibitors for enhancer of zeste homolog 2 (EZH2)” (Bioorg Med Chem Lett, 2024).
